Source: PMC9686657, “Protection against Oxidative Stress and Metabolic Alterations by Synthetic Peptides Derived from Erythrina edulis Seed Protein” (Antioxidants, 2022)
Read-outs that look alike come from different tables or passages of the source. Ends that are not written are not given here. Peptide text beside a SMILES is read from it.

Key:
DPP-IV [1] = molecular target: T1, DPP-IV (Homo sapiens, UniProt P27487); experiment: DPP-IV inhibitory activity (Inhibitor Screening Kit MAK203); type: biochemical; details: n.d. = activity not detected; mean ± SD; read-out: DPP-IV Inhibition (IC50)
T1 construct: purchased Sigma-Aldrich MAK203
T1 sequence (P27487 whole entry): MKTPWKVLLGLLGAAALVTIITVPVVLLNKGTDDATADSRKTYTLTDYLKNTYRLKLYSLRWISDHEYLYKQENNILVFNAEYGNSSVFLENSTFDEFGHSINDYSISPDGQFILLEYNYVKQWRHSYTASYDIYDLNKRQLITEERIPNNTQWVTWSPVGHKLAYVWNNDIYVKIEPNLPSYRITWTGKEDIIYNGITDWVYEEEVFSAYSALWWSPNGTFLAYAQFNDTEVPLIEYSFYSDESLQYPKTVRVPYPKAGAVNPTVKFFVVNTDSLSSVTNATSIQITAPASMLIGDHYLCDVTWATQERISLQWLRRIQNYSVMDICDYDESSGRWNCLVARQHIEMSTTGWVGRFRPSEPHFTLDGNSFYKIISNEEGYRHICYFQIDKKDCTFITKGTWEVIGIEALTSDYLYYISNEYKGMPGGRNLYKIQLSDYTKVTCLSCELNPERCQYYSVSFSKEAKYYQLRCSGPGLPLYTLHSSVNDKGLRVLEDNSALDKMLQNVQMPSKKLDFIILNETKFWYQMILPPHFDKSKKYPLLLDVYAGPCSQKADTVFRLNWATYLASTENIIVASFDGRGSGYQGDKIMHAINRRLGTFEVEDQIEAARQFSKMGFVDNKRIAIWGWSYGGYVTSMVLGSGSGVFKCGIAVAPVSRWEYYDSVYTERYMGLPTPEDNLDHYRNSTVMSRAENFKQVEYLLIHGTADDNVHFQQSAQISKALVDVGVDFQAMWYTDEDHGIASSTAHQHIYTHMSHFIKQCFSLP
Method: The DPP-IV inhibitory activity was determined using the DPP-IV Inhibitor Screening Kit MAK203, according to the manufacturer’s instructions. […] After this time, the fluorescence was measured each 2 min at λexcitation and λemission of 360 and 460 nm, respectively, in the Infinite M200 Pro plate reader (Tecan Group AG). Three independent runs were performed for each sample. The results were expressed as IC50 value.

SH-SY5Y cells = experiment: Cell viability, MTT assay; type: cell-based, human; details: basal conditions, highest concentration 100 µM, 24 h; data not shown
Method: Human neuroblastoma SH-SY5Y cells were obtained from the American Type Culture Collection (ATCC, […], Rockville, MD, USA) and grown in RPMI-1640 medium supplemented with 10% FBS, 2 mM L-glutamine, 1 mM sodium pyruvate, 1 mM NEAA, and 50 μg/mL gentamicin in a humidified incubator containing 5% CO2 and 95% air at 37 °C.
The effects of pajuro-derived peptides on cell viability were determined using the MTT assay, following the protocol previously described by Palma-Albino et al.. SH-SY5Y cells were seeded (2 × 10^4 cells/well) onto 96-well plates in complete medium with 1% FBS and incubated at 37 °C for 16 h. After discarding the culture medium, the peptide sample was added (at concentration of 10, 25, and 100 µM), and the plate was incubated for 24 h. Upon removing the supernatant, a MTT solution (2 mg/mL) was added, and the plate was incubated for 60 min at 37 °C. After this time, the supernatant was discarded, and the formazan crystals were dissolved in dimetilsulfoxide (DMSO). The absorbance was measured at 570 nm in the Infinite M200 Pro plate reader (Tecan Group AG). Three independent runs were performed for each sample. The results were expressed as percentage of the control, considered as 100%.

ACE from rabbit lung = molecular target: T2, ACE from rabbit lung (Oryctolagus cuniculus, UniProt P12822); experiment: ACE inhibitory activity (HHL substrate); type: biochemical; details: n.d. = activity not detected; mean ± SD; read-out: ACE Inhibition (IC50)
T2 construct: ACE from rabbit lung; purchased Sigma-Aldrich; host or cells: rabbit lung tissue
T2 sequence (P12822 34-1310): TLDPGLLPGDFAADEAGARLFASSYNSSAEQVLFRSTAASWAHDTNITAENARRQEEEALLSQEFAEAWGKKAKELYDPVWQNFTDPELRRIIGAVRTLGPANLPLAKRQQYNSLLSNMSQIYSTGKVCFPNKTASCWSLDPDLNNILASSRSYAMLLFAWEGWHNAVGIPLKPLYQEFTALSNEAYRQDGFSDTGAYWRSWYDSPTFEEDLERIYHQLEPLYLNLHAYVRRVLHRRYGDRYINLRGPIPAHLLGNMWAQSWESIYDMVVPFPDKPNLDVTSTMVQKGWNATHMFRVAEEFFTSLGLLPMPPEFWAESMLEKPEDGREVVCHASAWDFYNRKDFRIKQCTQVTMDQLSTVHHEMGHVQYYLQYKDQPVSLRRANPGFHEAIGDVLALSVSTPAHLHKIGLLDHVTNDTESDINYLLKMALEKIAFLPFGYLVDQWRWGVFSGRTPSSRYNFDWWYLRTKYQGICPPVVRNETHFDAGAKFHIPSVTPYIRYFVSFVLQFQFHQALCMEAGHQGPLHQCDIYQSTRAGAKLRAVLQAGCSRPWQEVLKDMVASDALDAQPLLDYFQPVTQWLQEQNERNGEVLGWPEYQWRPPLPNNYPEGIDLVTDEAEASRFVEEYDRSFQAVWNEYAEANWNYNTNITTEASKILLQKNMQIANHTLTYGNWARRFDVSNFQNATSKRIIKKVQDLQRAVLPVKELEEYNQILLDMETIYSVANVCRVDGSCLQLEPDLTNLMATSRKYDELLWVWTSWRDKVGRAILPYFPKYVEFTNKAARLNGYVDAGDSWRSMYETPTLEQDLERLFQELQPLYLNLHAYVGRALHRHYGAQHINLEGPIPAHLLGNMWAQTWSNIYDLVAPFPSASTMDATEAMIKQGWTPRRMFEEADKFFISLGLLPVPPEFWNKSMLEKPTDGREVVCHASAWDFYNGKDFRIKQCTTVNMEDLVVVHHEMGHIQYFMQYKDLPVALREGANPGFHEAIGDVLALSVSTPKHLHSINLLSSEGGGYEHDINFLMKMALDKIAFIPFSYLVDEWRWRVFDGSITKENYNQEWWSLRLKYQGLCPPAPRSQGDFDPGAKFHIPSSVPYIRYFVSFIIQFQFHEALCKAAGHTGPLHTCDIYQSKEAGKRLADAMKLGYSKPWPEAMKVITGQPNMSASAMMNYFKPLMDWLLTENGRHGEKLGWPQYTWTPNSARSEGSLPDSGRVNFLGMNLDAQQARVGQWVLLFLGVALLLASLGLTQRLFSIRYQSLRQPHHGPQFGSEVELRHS
Method: The in vitro ACE inhibitory activity of peptides was measured following the methodology described by Hayakari et al., with some modifications. […] It was incubated at 37 °C for 60 min. […] Three independent runs were performed for each sample.

α-glucosidase = details: ref Vilcacundo et al. [46]; read-out: α-glucosidase inhibitory capacity (IC50); cited from earlier work
[2] = tested on: T3, porcine pancreatic lipase type II; experiment: Pancreatic lipase inhibitory activity; type: biochemical; details: control orlistat at 0.5 µM
T3 construct: porcine pancreatic lipase type II; purchased Sigma-Aldrich; host or cells: porcine pancreas tissue
Method: The pancreatic lipase inhibitory activity was determined following the protocols previously described, with some modifications. […] Three independent runs were performed for each sample. The results were expressed as percentage of the negative control, considered as 100%.

DPP-IV [3] = molecular target: T1, DPP-IV; details: literature value; cited from earlier work
[4] = tested on: T4, α-amylase type VI-B from porcine pancreas; experiment: α-amylase inhibition assay; type: biochemical; details: control acarbose at 10 mM
T4 construct: α-amylase type VI-B from porcine pancreas; purchased Sigma-Aldrich; host or cells: porcine pancreas tissue
Method: The α-amylase inhibition assay was carried out following the methods described by Subramanian et al. and Kumar et al., with some modifications. Then, 200 µL of mixture, containing α-amylase (800 mU), 0.125% starch, and peptide (100 µM) or standard (at different concentrations) in 0.1 M phosphate buffer (pH 6.9), was incubated at 37 °C for 30 min. After adding 100 µL of a solution containing 1% 3,5-dinitrosalicylic acid and 30% sodium potassium tartrate in 0.4 M NaOH, shaking, and incubating at 100 °C for 10 min, the absorbance was measured at 540 nm in an Infinite M200 Pro plate reader (Tecan Group AG). Three independent runs were performed for each sample. The results were expressed as percentage of the negative control, considered as 100%.

[5] = tested on: α-glucosidase from Saccharomyces cerevisiae; experiment: α-glucosidase inhibitory activity; type: biochemical; details: control acarbose at 10 mM
Method: The α-glucosidase inhibitory activity was determined as previously reported, with some modifications. […] Three independent runs were performed for each sample. The results were expressed as percentage of the negative control, considered as 100%.

With AALWE [AALWE] the IC50 (DPP-IV [1]) was 131 ± 2.34 µM and the “effect on cell viability (cytotoxicity)” value (SH-SY5Y cells) was “None of them, at the highest concentration assayed (100 µM), affected the cell viability”.
In the case of N[C@@H](Cc1ccc(O)cc1)C(=O)N1CCC[C@H]1C(=O)N[C@@H](CO)C(=O)N[C@@H](Cc1ccc(O)cc1)C(=O)O [YPSY] (H-YPSY-OH; N-terminus and C-terminus assumed), the IC50 (ACE from rabbit lung) is reported as 115.6 ± 0.26 µM, the IC50 (DPP-IV [1]) is reported as 32.6 ± 1.6 µM and the “effect on cell viability (cytotoxicity)” value (SH-SY5Y cells) is reported as “None of them, at the highest concentration assayed (100 µM), affected the cell viability”.
For DGLGYY [DGLGYY], the IC50 (ACE from rabbit lung) was 82.6 ± 0.58 µM and the “effect on cell viability (cytotoxicity)” value (SH-SY5Y cells) was “None of them, at the highest concentration assayed (100 µM), affected the cell viability”.
With MFTGPY [MFTGPY] the IC50 (DPP-IV [1]) was 214 ± 2.83 µM and the “effect on cell viability (cytotoxicity)” value (SH-SY5Y cells) was “None of them, at the highest concentration assayed (100 µM), affected the cell viability”.
In the case of IQAEGGLT, the IC50 (α-glucosidase) is given as 110 µM.
In the case of SQLPGW [SQLPGW], the IC50 (ACE from rabbit lung) is reported as 50.5 ± 0.95 µM and the “effect on cell viability (cytotoxicity)” value (SH-SY5Y cells) is reported as “None of them, at the highest concentration assayed (100 µM), affected the cell viability”.
In the case of CCCCCCCCCCC[C@@H](C[C@@H]1OC(=O)[C@H]1CCCCCC)OC(=O)[C@H](CC(C)C)NC=O [orlistat], the “Pancreatic lipase Inhibition” value [2] is reported as 94.62 ± 0.90%.
For diprotin A, the IC50 (DPP-IV [3]) is given as 24.7 µM.
In the case of C[C@H]1O[C@H](O[C@H]2[C@H](O)[C@@H](O)[C@@H](O[C@H]3[C@H](O)[C@@H](O)C(O)O[C@@H]3CO)O[C@@H]2CO)[C@H](O)[C@@H](O)[C@@H]1N[C@H]1C=C(CO)[C@@H](O)[C@H](O)[C@H]1O (stereo partly shown) [acarbose], the “α-Amylase Inhibition” value [4] is reported as 75.05 ± 1.55% and the “α-Glucosidase Inhibition” value [5] is reported as 62.36 ± 0.54%.
